Data taken from the NIST ThermoML archive (doi:10.1016/j.jct.2012.08.033).
Numbers after ± are expanded uncertainties.

Tests used:
[1] = xn = mol fraction of the nth substance listed; conditions: Liquid, vibrating tube, x1 = 1
[2] = Liquid, vibrating tube

| mass density ([1]; 293.28 K, 100.7 kPa) [kg/m3] | mass density ([1]; 313.3 K, 78.5 kPa) [kg/m3] | mass density ([2]; 293.28 K, 100.7 kPa) [kg/m3] | mass density ([2]; 313.3 K, 78.5 kPa) [kg/m3] | SMILES |
| --- | --- | --- | --- | --- |
| 998.33 ± 2 | 992.09 ± 2 | – | – | O [water] + C1CCOC1 |
| – | – | 998.33 ± 2 | 992.09 ± 2 | O [water] |
